What was measured:
Assay in all cases: relative IC50 (inflection point of fitted viability curve, relative to fitted max inhibition); higher = less sensitive
Conditions in all cases: 72 h
DERL-7 (IL-2 2.5 ng/mL) = test system: DERL-7 (IL-2 2.5 ng/mL)
Protocol: (§1)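 Drug sensitivity and resistance testing: 5 concentrations over a 10,000-fold range, 72 h at 37 °C, viability by CellTiter-Glo normalised to DMSO and benzethonium chloride controls. IC50 is the inflection point of a logistic fit (min fixed at 0, max fitted), so it is relative to the fitted maximal inhibition. Kept only where fitted max inhibition is at least 50%.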

KAI3 (IL-2 2.5 ng/mL) = test system: KAI3 (IL-2 2.5 ng/mL)
Protocol: as §1

NK-92 (IL-2 2.5 ng/mL) = test system: NK-92 (IL-2 2.5 ng/mL)
Protocol: as §1

NKL (IL-2 2.5 ng/mL) = test system: NKL (IL-2 2.5 ng/mL)
Protocol: as §1

SNK-6 (IL-2 2.5 ng/mL) = test system: SNK-6 (IL-2 2.5 ng/mL)
Protocol: as §1

IMC-1 (IL-2 20 ng/mL) = test system: IMC-1 (IL-2 20 ng/mL)
Protocol: as §1

KHYG-1 (IL-2 2.5 ng/mL) = test system: KHYG-1 (IL-2 2.5 ng/mL)
Protocol: as §1

Nc1cc(F)ccc1NC(=O)/C=C/c1cnn(C/C=C/c2ccccc2)c1 [RGFP966]
relative IC50 (DERL-7 (IL-2 2.5 ng/mL)): 1.53 µM
relative IC50 (KAI3 (IL-2 2.5 ng/mL)): 1.94 µM
relative IC50 (NK-92 (IL-2 2.5 ng/mL)): 1.68 µM
relative IC50 (NKL (IL-2 2.5 ng/mL)): 1.35 µM
relative IC50 (SNK-6 (IL-2 2.5 ng/mL)): 1.46 µM

C[C@]12CC[C@H](O)CC1=CC[C@@H]1[C@@H]2CC[C@]2(C)C(c3cccnc3)=CC[C@@H]12 [Abiraterone]
relative IC50 (SNK-6 (IL-2 2.5 ng/mL)): > 5 µM

CNC(=O)c1ccc(C)c(-n2c(C)cc(OCc3ccc(F)cc3F)c(Br)c2=O)c1
relative IC50 (SNK-6 (IL-2 2.5 ng/mL)): > 1 µM

O[C@H]1CC[C@H](Nc2ncc3nc(Nc4c(F)cc(F)cc4F)n([C@H]4CCOC4)c3n2)CC1 [Tanzisertib]
relative IC50 (SNK-6 (IL-2 2.5 ng/mL)): > 10 µM

Cc1ccc(NC(=O)c2ccc(CN3CC[C@H](N(C)C)C3)c(C(F)(F)F)c2)cc1Nc1nccc(-c2cncnc2)n1 [Bafetinib]
relative IC50 (NKL (IL-2 2.5 ng/mL)): 0.136 µM

COc1cc2ncnc(Oc3cccc(NC(=O)Nc4cc(C(C)(C)C(F)(F)F)on4)c3)c2cc1OC
relative IC50 (SNK-6 (IL-2 2.5 ng/mL)): > 10 µM

CCc1cc(Nc2nccc(-c3c(-c4ccc(OC)c(C(=O)Nc5c(F)cccc5F)c4)nc4ccccn34)n2)c(OC)cc1N1CCC(N2CCN(S(C)(=O)=O)CC2)CC1
relative IC50 (IMC-1 (IL-2 20 ng/mL)): > 10 µM
relative IC50 (KHYG-1 (IL-2 2.5 ng/mL)): > 10 µM
relative IC50 (NKL (IL-2 2.5 ng/mL)): > 10 µM
relative IC50 (SNK-6 (IL-2 2.5 ng/mL)): > 10 µM

N[C@@H]1CCCN(c2c(/C=C3\SC(=O)NC3=O)cccc2-c2ccccc2)C1 [AZD1208]
relative IC50 (DERL-7 (IL-2 2.5 ng/mL)): 0.304 µM
relative IC50 (IMC-1 (IL-2 20 ng/mL)): > 10 µM

CC(C)C[C@H](NC(=O)[C@@H](COC(C)(C)C)NC(=O)[C@H](Cc1ccc(O)cc1)NC(=O)[C@H](CO)NC(=O)[C@H](Cc1c[nH]c2ccccc12)NC(=O)[C@H](Cc1cnc[nH]1)NC(=O)[C@@H]1CCC(=O)N1)C(=O)N[C@@H](CCCNC(=N)N)C(=O)N1CCC[C@H]1C(=O)NNC(N)=O [Goserelin]
relative IC50 (SNK-6 (IL-2 2.5 ng/mL)): > 10 µM

CN1CCN(C2CCN(C(=O)Nc3cc(Oc4ccc(NC(=O)C5(C(=O)Nc6ccc(F)cc6)CC5)c(F)c4)ccn3)CC2)CC1 [Golvatinib]
relative IC50 (KHYG-1 (IL-2 2.5 ng/mL)): 0.715 µM

Cn1cc(-c2ccc3nnc(Sc4ccc5ncccc5c4)n3n2)cn1 [SGX-523]
relative IC50 (IMC-1 (IL-2 20 ng/mL)): > 5 µM
relative IC50 (KHYG-1 (IL-2 2.5 ng/mL)): > 5 µM

C[C@@H](Oc1cc(-c2cnn(C3CCNCC3)c2)cnc1N)c1c(Cl)ccc(F)c1Cl [Crizotinib]
relative IC50 (SNK-6 (IL-2 2.5 ng/mL)): > 1 µM

Cc1nc(Nc2ncc(C(=O)Nc3c(C)cccc3Cl)s2)cc(N2CCN(CCO)CC2)n1 [Dasatinib]
relative IC50 (NKL (IL-2 2.5 ng/mL)): 0.0498 µM

O=C(CCBr)N1CCN(C(=O)CCBr)CC1 [Pipobroman]
relative IC50 (SNK-6 (IL-2 2.5 ng/mL)): > 10 µM

CCNC(=O)Nc1ccc(-c2nc3c(c(N4CCOC[C@@H]4C)n2)CCN(C2COC2)C3)cc1 [RG-7603]
relative IC50 (DERL-7 (IL-2 2.5 ng/mL)): 0.156 µM
relative IC50 (IMC-1 (IL-2 20 ng/mL)): > 2.5 µM
relative IC50 (NKL (IL-2 2.5 ng/mL)): 0.185 µM

C[C@@H]1CN(Cc2ccc(F)cc2)[C@@H](C)CN1C(=O)c1cc2c(C(=O)C(=O)N(C)C)cn(C)c2cc1Cl [Talmapimod]
relative IC50 (KHYG-1 (IL-2 2.5 ng/mL)): > 10 µM
relative IC50 (SNK-6 (IL-2 2.5 ng/mL)): > 10 µM

CNc1nc(-c2ccc3c(N)n[nH]c3c2)cc(N2C[C@@H](C(=O)NC3CCCCC3)CC[C@H]2C)n1
relative IC50 (DERL-7 (IL-2 2.5 ng/mL)): 0.248 µM
relative IC50 (IMC-1 (IL-2 20 ng/mL)): > 10 µM
relative IC50 (SNK-6 (IL-2 2.5 ng/mL)): > 10 µM

Cc1c(C(=O)Nc2ccc(N3C[C@@H](C)O[C@@H](C)C3)nc2)cccc1-c1ccc(OC(F)(F)F)cc1 [Sonidegib]
relative IC50 (IMC-1 (IL-2 20 ng/mL)): 2.25 µM
relative IC50 (NK-92 (IL-2 2.5 ng/mL)): 1.15 µM

CCc1c(C(=O)C(N)=O)c2c(OCC(=O)O)cccc2n1Cc1ccccc1 [Varespladib]
relative IC50 (IMC-1 (IL-2 20 ng/mL)): > 10 µM

O=c1ncn2nc(Sc3ccc(F)cc3F)ccc2c1-c1c(Cl)cccc1Cl [VX 745]
relative IC50 (KAI3 (IL-2 2.5 ng/mL)): 0.779 µM
relative IC50 (NKL (IL-2 2.5 ng/mL)): 0.719 µM

CON(C)C(=O)N1N=C(c2cc(F)ccc2F)S[C@@]1(CCCN)c1ccccc1 [Filanesib]
relative IC50 (IMC-1 (IL-2 20 ng/mL)): 0.00315 µM

CCCCCOC(=O)Nc1nc(=O)n([C@@H]2O[C@H](C)[C@@H](O)[C@H]2O)cc1F [Capecitabine]
relative IC50 (DERL-7 (IL-2 2.5 ng/mL)): 2.52 µM
relative IC50 (IMC-1 (IL-2 20 ng/mL)): > 10 µM
relative IC50 (KAI3 (IL-2 2.5 ng/mL)): 1.08 µM
relative IC50 (KHYG-1 (IL-2 2.5 ng/mL)): > 10 µM
relative IC50 (SNK-6 (IL-2 2.5 ng/mL)): 1.63 µM

COc1cc(C(=O)NC2CCN(C)CC2)c(F)cc1Nc1ncc2c(n1)N(C1CCCC1)CC(F)(F)C(=O)N2C [TAK-960]
relative IC50 (DERL-7 (IL-2 2.5 ng/mL)): > 2.5 µM

COc1ccc(COc2cc3oc(=O)c4cc(C(C)O)ccc4c3cc2OC)cc1 (stereo not given) [Palomid-529]
relative IC50 (KHYG-1 (IL-2 2.5 ng/mL)): 1.96 µM
relative IC50 (NK-92 (IL-2 2.5 ng/mL)): 1.28 µM
